Results: patent US12533411B2, “Compositions comprising anti-CD38 antibodies and carfilzomib” (Sanofi-Aventis U.S. LLC, priority 2013, dated 2026)
“Also recorded” adds a separate entry of the source.

Experiments:
tumor cells [1] = conditions: reported in the literature; cited from earlier work
[2] = tested on: NCI-H929 multiple myeloma model; assay: NCI-H929 subcutaneous multiple myeloma xenograft mouse model (Example 1); type: in vivo, Balb/c Scid mice; conditions: carfilzomib 2 mg/kg 2×/wk × 3 wk IV; for Activity: D69, hu38SB19 0.5 mg/kg 2×/wk × 2 wk IV
From the text: The subcutaneous multiple myeloma (MM) xenograft mouse models were established using NCI-H929 or RPMI-8226 cell lines. Specifically, 5-6 week old female Balb/c Scid mice were obtained from Jackson Lab. Mice were housed for 7-10 days prior to implantation. Mice were housed in a dedicated room in the UCSF Mt Zion Animal Barrier Facility. NCI-H929 and RPMI-8226 cells were obtained from the German Collection of Microorganisms and Cell Cultures, DSMZ, (Deutsche Sammlung von Mikroorganismen and Zellkulturen), and grown in sterile suspension culture in T225 flasks as follows: NCI-H929: RPMI1640+20% FBS+4 mM L−glutamine+1 mM sodium pyruvate+50 μM mercaptoethanol. RPMI-8226: RPMI1640+10% FBS+4 mM L-glutamine. At the time of implantation, mice were shaved on the right flank and shoulder region and anesthetized with ip avertin. MM cells suspended in serum free RPMI 1640 media diluted 1:1 with Matrigel (BD) at a concentration of 1×10^8 cells per ml were injected sc into the right flank in 100 μL volume (1×10^7 cells) using a 1 ml syringe and 25 g needle. Mice were monitored twice weekly for the appearance of tumors and once tumors were visible, measurements were collected twice weekly for body weight and tumor volume. Electronic balance and calipers were used and data was collected directly into a study management program (Study Director). When the mean tumor volume reached about 150-200 mm^3, the mice were distributed into treatment groups of 8-10 mice per groups and dosing was begun. […] Dose levels for use in combination studies are as follows: Data were collected using electronic balance and calipers using a study management application called StudyLog (Study Director). […] Antitumor activity was determined according to NCI standards based on the ratio of the median tumor volume change of the treated/median tumor volume change of the control×100 (% ΔT/ΔC). Low numerical values for ΔT/ΔC describe stronger anti-tumor activity. Anti-tumor activity is defined as T/C≤40% at minimum. ΔT/ΔC<10% is considered high anti-tumor activity.

NCI-H929 xenografts = assay: NCI-H929 hind-flank xenograft tumor growth (Example 3, FIGS. 12-13); type: in vivo, Balb/c Scid mice; conditions: for tumor growth inhibition, single agent: single-agent administration, NCI-H929 hind-flank model (FIG. 12)
Description: Carfilzomib (PR-171) was obtained from Chemie Tek (CT-CARP 98). Carfilzomib was formulated in an aqueous solution of 10% (w/v) sulfobutylether-h-cyclodextrin (Cydex) and 10 mmol/L sodium citrate (pH 3.5), 2 mg/ml stock prepared and frozen at −80° C., diluted daily with vehicle before injection. Carfilzomib was administered weekly qd×2×3 wk (iv).
Test Animals: 5-6 week old female Balb/c Scid mice were obtained from Jackson Lab. Mice were housed for 7-10 days prior to implantation of multiple myeloma (MM) cell lines. Mice were housed in a dedicated room in the UCSF Mt. Zion Animal Barrier Facility.
(§1) Xenograft Model: At the time of implantation, mice were shaved on the right flank and shoulder. MM cells were suspended in serum free RPMI 1640 media diluted 1:1 with Matrigel (BD) at a concentration of 1×10^8 cells per ml were injected sc into the right flank in 100 ul volume (1×10^7 cells) using a 1 ml syringe and 25 g needle. Mice were monitored twice weekly for the appearance of tumors and once tumors were visible, measurements were collected twice weekly for body weight and tumor volume. Electronic balance and calipers were used and data was collected directly into a study management program (Study Director). When the mean tumor volume reached approximately 150-200 mm^3, mice were distributed into treatment groups of 8-10 mice per group and dosing was initiated.

[3] = tested on: RPMI-8226 xenograft models; assay: RPMI-8226 subcutaneous multiple myeloma xenograft mouse model (Example 1); type: in vivo, Balb/c Scid mice; conditions: Day 41, carfilzomib 3 mg/kg qd×2 every wk×3 wk, hu38SB19 3 mg/kg BIW×2 wk
From the text: The subcutaneous multiple myeloma (MM) xenograft mouse models were established using NCI-H929 or RPMI-8226 cell lines. Specifically, 5-6 week old female Balb/c Scid mice were obtained from Jackson Lab. Mice were housed for 7-10 days prior to implantation. Mice were housed in a dedicated room in the UCSF Mt Zion Animal Barrier Facility. NCI-H929 and RPMI-8226 cells were obtained from the German Collection of Microorganisms and Cell Cultures, DSMZ, (Deutsche Sammlung von Mikroorganismen and Zellkulturen), and grown in sterile suspension culture in T225 flasks as follows: NCI-H929: RPMI1640+20% FBS+4 mM L−glutamine+1 mM sodium pyruvate+50 μM mercaptoethanol. RPMI-8226: RPMI1640+10% FBS+4 mM L-glutamine.
as §1, with “At” for “Xenograft Model: At”, “shoulder region and anesthetized with ip avertin.” for “shoulder.”, “cells” for “cells were”, “μL” for “ul”, “When the mean tumor volume reached approximately 150-200 mm^3, mice were distributed into treatment groups of 8-10 mice per group and dosing was initiated.” left out

tumor cells [4] = assay: Direct pro-apoptotic activity on tumor cells without cross-linking; type: cell-based; conditions: preclinical studies

Row | Molecule | induction of apoptosis (tumor cells [1]) | Activity [2] | elimination of palpable tumors (NCI-H929 xenografts; hu38SB19 as sole active ingredient, four cumulative doses twice weekly at 3 mg/kg (FIG. 12)) | tumor growth inhibition, single agent (NCI-H929 xenografts) | complete regressions [3] | direct pro-apoptotic activity (tumor cells [4]) | Activity ([2]; listed as carfilzomib) | % ΔT/ΔC (D69) ([2]; hu38SB19 0.5 mg/kg 2×/wk × 2 wk IV)
1 | Daratumumab: CD38 antibody reported to induce apoptosis only after cross-linking with a secondary antibody | able to induce apoptosis only after cross-linking with a secondary antibody |  |  |  |  |  |  | 
2 | hu38SB19: humanized anti-CD38 antibody; VH SEQ ID NO: 66, VL SEQ ID NO: 62 or 64; humanized version of 38SB19 |  | Inactive | eliminate palpable tumors in all mice | dose-dependent inhibition of tumor growth; also recorded: dose-dependent anti-tumor effects | 2/10 | potent direct pro-apoptotic activity |  | 
3 | CC(C)C[C@H](NC(=O)[C@H](CCc1ccccc1)NC(=O)CN1CCOCC1)C(=O)N[C@@H](Cc1ccccc1)C(=O)N[C@@H](CC(C)C)C(=O)[C@@]1(C)CO1 [Carfilzomib, (S)-4-Methyl-N-((S)-1-(((S)-4-methyl-1-((R)-2-methyloxiran-2-yl)-1-oxopentan-2-yl)amino)-1-oxo-3-phenylpropan-2-yl)-2-((S)-2-(2-morpholinoacetamido)-4-phenylbutanamido)pentanamide] |  | Inactive |  | not robustly sensitive to single-agent therapy | 0/10 |  | inactive | 68%
